What is called EC50 is the concentration needed to bring the measured effect to its halfway point. Read a low EC50 as greater potency.

The source of these data is patent publication US20100272680A1, “Piperidinyl Cyclic Amido Antiviral Agents” (priority 2009, published 2010).

The test system of one assay is HCV Genotype 1A Replicon. As to the kind of experiment: Replicon assay, genotype 1a subgenomic replicon, luciferase readout. Particulars: Hepatitis C virus, 48 h, Table 3; luciferase activity after 48 hours. In kind it is cell-based. In a few lines:
(§1)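 EC50 values came from four-parameter logistic fits of 10-point dose responses (3–4-fold steps, final 0.03–50 μM, 0.5–1% DMSO), normalized against no-compound and no-cell controls. Firefly luciferase was read 48 h after plating 0.5×10^4 replicon cells/well, 1b ET or 1a Apath-derived line.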

The subject of a further assay is HCV Genotype 1B Replicon. Briefly: Replicon assay, genotype 1b subgenomic replicon (ET cell line), luciferase readout. The format is cell-based. Particulars: Hepatitis C virus, 48 h, Table 3; luciferase activity after 48 hours. In a few lines: as §1
On the technique in general: A replicon is a self-replicating genome or part of one, used to study replication in cells.

Consider `C=Cc1cc(C(F)(F)F)c2nc(C(=O)N3CCC(N4CCOC4=O)CC3)c(Cl)n2c1` [Compound 153, 3-(1-{[3-chloro-6-ethenyl-8-(trifluoromethyl)imidazo[1,2-a]pyridin-2-yl]carbonyl}-4-piperidinyl)-1,3-oxazolidin-2-one], for which the EC50 in the assay on HCV Genotype 1A Replicon was 80 nM; in the assay with HCV Genotype 1B Replicon it was 70 nM.

Regarding `CC(C)c1cc(C(F)(F)F)c2nc(C(=O)N3CCC(N4CCOC4=O)CC3)c(Cl)n2c1` [Compound 154, 3-(1-{[3-chloro-6-(1-methylethyl)-8-(trifluoromethyl)imidazo[1,2-a]pyridin-2-yl]carbonyl}-4-piperidinyl)-1,3-oxazolidin-2-one], the EC50 in the assay on HCV Genotype 1A Replicon and with HCV Genotype 1B Replicon was 20 nM in each case.

For `CC(O)c1cc(C(F)(F)F)c2nc(C(=O)N3CCC(N4CCOC4=O)CC3)c(Cl)n2c1` (stereo not shown) [Compound 155, 3-(1-{[3-chloro-6-(1-hydroxyethyl)-8-(trifluoromethyl)imidazo[1,2-a]pyridin-2-yl]carbonyl}-4-piperidinyl)-1,3-oxazolidin-2-one], the EC50 came to 630 nM with HCV Genotype 1A Replicon and 1080 nM in the assay on HCV Genotype 1B Replicon.

Regarding `O=C(c1nc2c(C(F)(F)F)cc(C3CC3)cn2c1Cl)N1CCC(N2CCOC2=O)CC1` [Compound 156, 3-(1-{[3-chloro-6-cyclopropyl-8-(trifluoromethyl)imidazo[1,2-a]pyridin-2-yl]carbonyl}-4-piperidinyl)-1,3-oxazolidin-2-one], the EC50 in the assay with HCV Genotype 1A Replicon and with HCV Genotype 1B Replicon was 10 nM in each case.

As to `O=C(c1nc2c(C(F)(F)F)cc(C(F)F)cn2c1Cl)N1CCC(N2CCOC2=O)CC1` [Compound 157, 3-(1-{[3-chloro-6-(difluoromethyl)-8-(trifluoromethyl)imidazo[1,2-a]pyridin-2-yl]carbonyl}-4-piperidinyl)-1,3-oxazolidin-2-one], the EC50 in the assay on HCV Genotype 1A Replicon is 20 nM; with HCV Genotype 1B Replicon, 150 nM.

As to `O=C(c1nc2c(C(F)(F)F)cc(-c3ccoc3)cn2c1Br)N1CCC(N2CCOC2=O)CC1` [Compound 158, 3-(1-{[3-bromo-6-(3-furanyl)-8-(trifluoromethyl)imidazo[1,2-a]pyridin-2-yl]carbonyl}-4-piperidinyl)-1,3-oxazolidin-2-one], the EC50 with HCV Genotype 1A Replicon came out at 10 nM; with HCV Genotype 1B Replicon it was 40 nM.

As for `O=C(c1nc2c(C(F)(F)F)cc(-c3ccoc3)cn2c1Br)N1CCC(N2C(=O)COC2=O)CC1` [Compound 159, 3-(1-{[3-bromo-6-(3-furanyl)-8-(trifluoromethyl)imidazo[1,2-a]pyridin-2-yl]carbonyl}-4-piperidinyl)-1,3-oxazolidine-2,4-dione], the EC50 in the assay on HCV Genotype 1A Replicon and with HCV Genotype 1B Replicon was 30 nM throughout.

As to `N#Cc1c(C(=O)N2CCC(N3CCOC3=O)CC2)nc2c(C(F)(F)F)cc(-c3ccoc3)cn12` [Compound 160, 6-(3-furanyl)-2-{[4-(2-oxo-1,3-oxazolidin-3-yl)-1-piperidinyl]carbonyl}-8-(trifluoromethyl)imidazo[1,2-a]pyridine-3-carbonitrile], the EC50 in the assay on HCV Genotype 1A Replicon and with HCV Genotype 1B Replicon was 10 nM in each case.

For the compound `N#Cc1c(C(=O)N2CCC(N3C(=O)COC3=O)CC2)nc2c(C(F)(F)F)cc(-c3ccoc3)cn12` [Compound 161, 2-{[4-(2,4-dioxo-1,3-oxazolidin-3-yl)-1-piperidinyl]carbonyl}-6-(3-furanyl)-8-(trifluoromethyl)imidazo[1,2-a]pyridine-3-carbonitrile], the EC50 with HCV Genotype 1A Replicon and in the assay on HCV Genotype 1B Replicon was 30 nM throughout.

Turning to `N#Cc1c(C(=O)N2CCC(N3CCOC3=O)CC2)nc2c(C(F)(F)F)cc(C3CC3)cn12` [Compound 162, 6-cyclopropyl-2-{[4-(2-oxo-1,3-oxazolidin-3-yl)-1-piperidinyl]carbonyl}-8-(trifluoromethyl)imidazo[1,2-a]pyridine-3-carbonitrile], the EC50 with HCV Genotype 1A Replicon and in the assay on HCV Genotype 1B Replicon was 10 nM throughout.

Take `O=C(c1nc2c(C(F)(F)F)cc(C3CC3)cn2c1Cl)N1CCC(N2CC(O)CC2=O)CC1` (stereo not shown) [Compound 163, 1-(1-{[3-chloro-6-cyclopropyl-8-(trifluoromethyl)imidazo[1,2-a]pyridin-2-yl]carbonyl}-4-piperidinyl)-4-hydroxy-2-pyrrolidinone]: the results for the EC50 in the assay with HCV Genotype 1A Replicon and in the assay on HCV Genotype 1B Replicon were 380 nM and 80 nM, respectively.

`Cc1c(C(=O)N2CCC(N3CCOC3=O)CC2)nc2c(C(F)(F)F)cc(-c3ccoc3)cn12` [Compound 164, 3-(1-{[6-(3-furanyl)-3-methyl-8-(trifluoromethyl)imidazo[1,2-a]pyridin-2-yl]carbonyl}-4-piperidinyl)-1,3-oxazolidin-2-one]: the EC50 came out at 30 nM in the assay with HCV Genotype 1A Replicon and 100 nM in the assay on HCV Genotype 1B Replicon.

For `CC(C)c1c(C(=O)N2CCC(N3CCOC3=O)CC2)nc2c(C(F)(F)F)cc(-c3ccoc3)cn12` [Compound 165, 3-(1-{[6-(3-furanyl)-3-(1-methylethyl)-8-(trifluoromethyl)imidazo[1,2-a]pyridin-2-yl]carbonyl}-4-piperidinyl)-1,3-oxazolidin-2-one], the EC50 in the assay with HCV Genotype 1A Replicon and in the assay on HCV Genotype 1B Replicon was at least 5010 nM each time.

Turning to `O=C(c1nc2c(C(F)(F)F)cc(-c3ccoc3)cn2c1CO)N1CCC(N2CCOC2=O)CC1` [Compound 166, 3-(1-{[6-(3-furanyl)-3-(hydroxymethyl)-8-(trifluoromethyl)imidazo[1,2-a]pyridin-2-yl]carbonyl}-4-piperidinyl)-1,3-oxazolidin-2-one], the EC50 in the assay on HCV Genotype 1A Replicon was 920 nM; in the assay on HCV Genotype 1B Replicon, 2000 nM.

In the case of `O=C(c1nc2c(C(F)(F)F)cc(-c3cn[nH]c3)cn2c1Cl)N1CCC(N2C(=O)CCC2=O)CC1` [Compound 167, 1-(1-{[3-chloro-6-(1H-pyrazol-4-yl)-8-(trifluoromethyl)imidazo[1,2-a]pyridin-2-yl]carbonyl}-4-piperidinyl)-2,5-pyrrolidinedione], the figures for the EC50 with HCV Genotype 1A Replicon and in the assay with HCV Genotype 1B Replicon were 630 nM and 520 nM, respectively.

Regarding `O=C(c1nc2c(C(F)(F)F)cc(-c3ccoc3)cn2c1Cl)N1CCC(N2C(=O)CCC2=O)CC1` [Compound 168, 1-(1-{[3-chloro-6-(3-furanyl)-8-(trifluoromethyl)imidazo[1,2-a]pyridin-2-yl]carbonyl}-4-piperidinyl)-2,5-pyrrolidinedione], the EC50 is 100 nM in the assay on HCV Genotype 1A Replicon and 70 nM in the assay with HCV Genotype 1B Replicon.

Turning to `O=C(c1nc2c(C(F)(F)F)cc(-c3ccoc3)cn2c1Cl)N1CCC(N2CCNC2=O)CC1` [Compound 169, 1-(1-{[3-chloro-6-(3-furanyl)-8-(trifluoromethyl)imidazo[1,2-a]pyridin-2-yl]carbonyl}-4-piperidinyl)-2-imidazolidinone], the half-maximal effective concentration (EC50) in the assay on HCV Genotype 1A Replicon turned out to be 1880 nM; in the assay with HCV Genotype 1B Replicon it was 160 nM.

Consider `O=C(c1nc2c(C(F)(F)F)cc(-c3cn[nH]c3)cn2c1Cl)N1CCC(N2CCNC2=O)CC1` [Compound 170, 1-(1-{[3-chloro-6-(1H-pyrazol-4-yl)-8-(trifluoromethyl)imidazo[1,2-a]pyridin-2-yl]carbonyl}-4-piperidinyl)-2-imidazolidinone], for which the EC50 with HCV Genotype 1A Replicon was found to be 8810 nM; in the assay on HCV Genotype 1B Replicon, 1320 nM.

As to `O=C1CN(C2CCN(C(=O)c3nc4c(C(F)(F)F)cc(-c5ccoc5)cn4c3Cl)CC2)C(=O)N1` [Compound 171, 1-(1-{[3-chloro-6-(3-furanyl)-8-(trifluoromethyl)imidazo[1,2-a]pyridin-2-yl]carbonyl}-4-piperidinyl)-2,4-imidazolidinedione], the EC50 came out at 810 nM in the assay with HCV Genotype 1A Replicon and 580 nM in the assay on HCV Genotype 1B Replicon.

In the case of `O=C1CN(C2CCN(C(=O)c3nc4c(C(F)(F)F)cc(-c5cn[nH]c5)cn4c3Cl)CC2)C(=O)N1` [Compound 172, 1-(1-{[3-chloro-6-(1H-pyrazol-4-yl)-8-(trifluoromethyl)imidazo[1,2-a]pyridin-2-yl]carbonyl}-4-piperidinyl)-2,4-imidazolidinedione], the EC50 with HCV Genotype 1A Replicon amounted to 3210 nM; in the assay on HCV Genotype 1B Replicon, 3760 nM.

With `CN1CCN(C2CCN(C(=O)c3nc4c(C(F)(F)F)cc(-c5ccoc5)cn4c3Cl)CC2)C1=O` [Compound 173, 1-(1-{[3-chloro-6-(3-furanyl)-8-(trifluoromethyl)imidazo[1,2-a]pyridin-2-yl]carbonyl}-4-piperidinyl)-3-methyl-2-imidazolidinone], the EC50 is 750 nM with HCV Genotype 1A Replicon and 480 nM in the assay on HCV Genotype 1B Replicon.

On to `O=C(c1nc2c(C(F)(F)F)cc(-c3cn[nH]c3)cn2c1Cl)N1CCC(N2C(=O)CNC2=O)CC1` [Compound 174, 3-(1-{[3-chloro-6-(1H-pyrazol-4-yl)-8-(trifluoromethyl)imidazo[1,2-a]pyridin-2-yl]carbonyl}-4-piperidinyl)-2,4-imidazolidinedione], for which the EC50 in the assay with HCV Genotype 1A Replicon was found to be 25100 nM; with HCV Genotype 1B Replicon it was 2290 nM.

On to `O=C(c1nc2c(C(F)(F)F)cc(-c3ccoc3)cn2c1Cl)N1CCC(N2C(=O)CNC2=O)CC1` [Compound 175, 3-(1-{[3-chloro-6-(3-furanyl)-8-(trifluoromethyl)imidazo[1,2-a]pyridin-2-yl]carbonyl}-4-piperidinyl)-2,4-imidazolidinedione], for which the EC50 turned out to be 2570 nM with HCV Genotype 1A Replicon and 140 nM in the assay on HCV Genotype 1B Replicon.

With `CC1(C)COC(=O)N1C1CCN(C(=O)c2nc3c(C(F)(F)F)cc(-c4ccoc4)cn3c2Cl)CC1` [Compound 176, 3-(1-{[3-chloro-6-(3-furanyl)-8-(trifluoromethyl)imidazo[1,2-a]pyridin-2-yl]carbonyl}-4-piperidinyl)-4,4-dimethyl-1,3-oxazolidin-2-one], the EC50 in the assay on HCV Genotype 1A Replicon and with HCV Genotype 1B Replicon was at least 50100 nM in each case.

Take `CC1(C)COC(=O)N1C1CCN(C(=O)c2nc3c(C(F)(F)F)cc(-c4cn[nH]c4)cn3c2Cl)CC1` [Compound 177, 3-(1-{[3-chloro-6-(1H-pyrazol-4-yl)-8-(trifluoromethyl)imidazo[1,2-a]pyridin-2-yl]carbonyl}-4-piperidinyl)-4,4-dimethyl-1,3-oxazolidin-2-one]: the EC50 in the assay on HCV Genotype 1A Replicon and in the assay on HCV Genotype 1B Replicon was at least 50100 nM throughout.

`O=C(c1nc2c(C(F)(F)F)cc(-c3ccoc3)cn2c1Cl)N1CCC(N2C(=O)COC2=O)CC1` [Compound 178, 3-(1-{[3-chloro-6-(3-furanyl)-8-(trifluoromethyl)imidazo[1,2-a]pyridin-2-yl]carbonyl}-4-piperidinyl)-1,3-oxazolidine-2,4-dione]: the results for the EC50 with HCV Genotype 1A Replicon and with HCV Genotype 1B Replicon were 20 nM and 30 nM, respectively.
